Data reported in US20230302036A1, “COMPOSITIONS FOR TREATMENT OF SPINAL MUSCULAR ATROPHY” (priority 2020, published 2023).
Oligonucleotides are written 5' to 3', each unit as a sugar letter and its base; * is a phosphorothioate linkage, no mark a phosphodiester; rarer units and linkages stand in square brackets, end groups in braces. Plain capitals give the bases only. e = 2'-O-(2-methoxyethyl) (MOE); [5mC] = 5-methylcytosine

Assays:
[1] = tested on: H3K9me2 along SERF1A, MYOD, GAPDH; assay: Specificity control ChIP-qPCR of H3K9me2 on SERF1A, MYOD and GAPDH in HEK293T cells; format: cell-based, human
Method: FIGS. 6A-6D show antisense oligonucleotides and their effects on chromatin. […] Uppercase, exonic nucleotide sequence. Lowercase, intronic sequences. Upstream highlight, binding site for ASO1. Downstream highlight, binding site for ASO2. Levels of H3K9me2 deposition along small EDRK-rich factor 1A (SERF1A, upstream of SMN2) (FIG. 6B), Myoblast Determination Protein (MYOD) (FIG. 6C), and Glyceraldehyde 3-phosphate dehydrogenase (GAPDH) (FIG. 6D), were assessed by ChIP-qPCR in HEK293T cells. Data represented as mean ± S.D. (n = 4, *p < 0.05, two-tailed Student’s t test).
(§1) Approximately 2×10^6 HEK293T cells per sample were treated for 10 min in 1% (v/v) formaldehyde at room temperature to crosslink protein-DNA complexes. Crosslinking was stopped with glycine at a final concentration of 125 mM. Cells were washed twice with cold PBS and swelled on ice for 10 min in 25 mM HEPES pH 8, 1.5 mM MgCl2, 10 mM KCl, 0.1% NP-40, 1 mM DTT and 1× protease inhibitor cocktail set III (Calbiochem). Following Dounce homogenization, the nuclei were collected and resuspended in 1 ml sonication buffer (50 mM HEPES pH 8, 140 mM NaCl, 1 mM EDTA, 0.1% sodium deoxycholate, 0.1% SDS and 1× protease inhibitor cocktail). […] Immunoprecipitated DNA (1.5 µl) and serial dilutions of the 10% input DNA (1:4, 1:20, 1: 100, and 1:500) were analyzed by SYBR-Green real-time qPCR.

[2] = tested on: total RNAPII along the human SMN2 transgene; assay: ChIP-qPCR of total RNAPII along the human SMN2 transgene in brain and liver of P7 SMA mice; format: in vivo, mouse; details: P7 SMA mice injected with ASO1
Method: H3K9me2 (left) and total RNAPII (right) distribution along the human SMN2 transgene, assessed by ChIP-qPCR, in brain (FIG. 12A) and liver (FIG. 12B) of P7 SMA mice injected with ASO1. Vertical arrows indicate the approximate location of the target site for ASO1 on the pre-mRNA. Three independent immunoprecipitation replicates were conducted per experiment. Data are represented as mean ± S.D. (n = 3, *p < 0.05, two-tailed Student’s t test).
as §1, with “cocktail). DNA was sonicated in an ultrasonic bath (Bioruptor Diagenode) to an average length of 200-500 bp. After addition of 1% (v/v) Triton X-100, samples were centrifuged at 15,000 ×g.” for “cocktail).”

Question: “ASO1: 5′-ATTCACTTTCATAATGCTGG-3′ 2′-O-methoxyethyl-modified oligonucleotide with phosphorothioate backbone and all 5-methyl cytosines; nusinersen variant with 2-nucleotide extension (antisense eA*eT*eT*e[5mC]*eA*e[5mC]*eT*eT*eT*e[5mC]*eA*eT*eA*eA*eT*eG*e[5mC]*eT*eG*eG)” was tested. Which “H3K9 dimethylation in control genes (same TAD: SERF1A; outside TAD: MYOD, GAPDH)” value [1] did it give?
Answer: Its value is “neither ASO1 nor ASO2 promoted H3K9 dimethylation”.

Question: What about the “RNAPII accumulation on the SMN2 transgene in liver and brain” value [2] of the same substance?
Answer: The value was “RNAPII accumulation”.
